Assays:
H9 = assay: Cytotoxicity in human H9 cells upto 2 uM; type: cell-based
Protein kinase C (PKC) = assay: Displacement of [3H]PDBu from rat brain membrane PKC; type: tissue-based
[1] = tested on: Human immunodeficiency virus 1; assay: Inhibition of HIV1 replication in human H9 cells assessed as inhibition of supernatant reverse transcriptase and p24 level; type: functional, organism-based; settings: Human immunodeficiency virus 1, H9

SMILES: CCCC/C=C/C=C/CC(=O)O[C@@]12C[C@H](C)[C@@]3(O)[C@@H](C=C(CO)C[C@]4(O)C(=O)C(C)=C[C@@H]34)[C@@H]1C2(C)C
- Activity (H9): Non-toxic
- IC50 (Protein kinase C (PKC)): 17 nM
- IC50 [1]: 6 nM
